Reference: US20110040086A1, “Novel Beta-Lactam Antibiotics, Methods for Their Production, and Their Use” (DRITTE PATENTPORTFOLIO BETEILIGUNGSGESELLSCHAFT MB, priority 2007, published 2011)

How the values were obtained:
[1] = system: Bacillus megaterium SBUG 1152; assay: agar diffusion test (Test System 1, antimicrobial effect); format: cell-based
Method in brief: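 Paper discs loaded with 10 μg, 50 μg or 100 μg of test substance (methanol or water solution) placed on nutrient agar seeded with 10^6 cells of a 17-h B. megaterium culture. After 20 h at 37° C., zone of inhibition measured as diameter in mm.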

B. subtilis AWD 166 = assay: agar diffusion test (antimicrobial effect); format: cell-based, Bacillus subtilis
Method in brief: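 Inhibition zone diameters (mm) read after 20 h incubation at 37 °C. Discs carried 10 μg, 50 μg or 100 μg of test substance, dissolved in methanol or distilled water, on agar inoculated with B. subtilis AWD 166 for dense but separate colonies.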

[2] = system: Escherichia coli SBUG 1135; assay: agar diffusion test (Test System 1, antimicrobial effect); format: cell-based
Method in brief: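 Disc diffusion: compound at 10 μg, 50 μg, 100 μg on sensi-discs, three per plate of nutrient agar seeded with ~10^6 E. coli SBUG 1135 (overnight culture, 17 h, 37° C, diluted 1:100). After 20 h incubation at 37° C, zone diameter recorded in mm.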

[3] = system: Enterococcus faecalis 769; assay: agar diffusion test (Test System II, multi-resistant germs); format: cell-based; set-up: key: r = resistant (no detectable zone of inhibition)
Method in brief: (§1)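 Zone diameters around compound-loaded discs serve as the activity measure. Plates of Müller-Hinton agar II receive a three-layer coating of McFarland 0.5 suspension and three discs containing 10, 50 or 100 μg, then stand 18-20 h at 37 °C.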

[4] = system: Staphylococcus aureus 315; assay: as above; format: cell-based; set-up: key: r = resistant (no detectable zone of inhibition)
Method in brief: as §1

E. faecalis 945 = assay: as above; format: cell-based, Enterococcus faecalis; set-up: key: r = resistant (no detectable zone of inhibition)
Method in brief: as §1

S. aureus 33490 = assay: as above; format: cell-based, Staphylococcus aureus; set-up: key: r = resistant (no detectable zone of inhibition)
Method in brief: as §1

S. aureus 34289 = assay: as above; format: cell-based, Staphylococcus aureus; set-up: key: r = resistant (no detectable zone of inhibition)
Method in brief: as §1

S. aureus 36881 = assay: as above; format: cell-based, Staphylococcus aureus; set-up: key: r = resistant (no detectable zone of inhibition)
Method in brief: as §1

S. aureus 39105 = assay: as above; format: cell-based, Staphylococcus aureus; set-up: key: r = resistant (no detectable zone of inhibition)
Method in brief: as §1

S. aureus 520 = assay: as above; format: cell-based, Staphylococcus aureus; set-up: key: r = resistant (no detectable zone of inhibition)
Method in brief: as §1

S. aureus 526 = assay: as above; format: cell-based, Staphylococcus aureus; set-up: key: r = resistant (no detectable zone of inhibition)
Method in brief: as §1

[5] = system: S. aureus North Germany strain; assay: as above; format: cell-based, Staphylococcus aureus; set-up: key: r = resistant (no detectable zone of inhibition)
Method in brief: as §1

S. epidermidis 1068 = assay: as above; format: cell-based, Staphylococcus epidermidis; set-up: key: r = resistant (no detectable zone of inhibition)
Method in brief: as §1

S. epidermidis 1071 = assay: as above; format: cell-based, Staphylococcus epidermidis; set-up: key: r = resistant (no detectable zone of inhibition)
Method in brief: as §1

S. epidermidis 563 = assay: as above; format: cell-based, Staphylococcus epidermidis; set-up: key: r = resistant (no detectable zone of inhibition)
Method in brief: as §1

S. epidermidis 847 = assay: as above; format: cell-based, Staphylococcus epidermidis; set-up: key: r = resistant (no detectable zone of inhibition)
Method in brief: as §1

S. epidermidis 125 = assay: as above; format: cell-based, Staphylococcus epidermidis
Method in brief: as §1

Compound: NC(=O)C1=C(NC(C(=O)NC2C(=O)N3C(C(=O)O)=C(Cl)CSC23)c2ccccc2)C(=O)C=CC1=O (stereo not drawn) [1j, 3-chlorine-7-[2-(2-carbamoyl-3,6-dioxocyclohexa-1,4-dienylamino)-2-phenyl-acetylamino]-8-oxo-1-thia-5-azabicyclo[4.2.0]oct-3-en-4-carboxylic acid]
- Diameter of zone of inhibition ([1]; Quantity n 0.02): 28 mm
- Diameter of zone of inhibition ([1]; Quantity n 0.1): 36 mm
- Diameter of zone of inhibition ([1]; Quantity n 0.2): 40 mm
- Diameter of zone of inhibition (B. subtilis AWD 166; Quantity n 0.02): 30 mm
- Diameter of zone of inhibition (B. subtilis AWD 166; Quantity n 0.1): 38 mm
- Diameter of zone of inhibition (B. subtilis AWD 166; Quantity n 0.2): 40 mm
- Diameter of zone of inhibition ([2]; Quantity n 0.02): 18 mm
- Diameter of zone of inhibition ([2]; Quantity n 0.1): 26 mm
- Diameter of zone of inhibition ([2]; Quantity n 0.2): 28 mm
- Diameter of zone of inhibition ([3]; Quantity n 0.02): r
- Diameter of zone of inhibition ([3]; Quantity n 0.1): 8 mm
- Diameter of zone of inhibition ([3]; Quantity n 0.2): 12 mm
- Diameter of zone of inhibition ([4]; Quantity n 0.02): r
- Diameter of zone of inhibition ([4]; Quantity n 0.1): 8 mm
- Diameter of zone of inhibition ([4]; Quantity n 0.2): 12 mm
- Diameter of zone of inhibition (E. faecalis 945; Quantity n 0.02): r
- Diameter of zone of inhibition (E. faecalis 945; Quantity n 0.1): r
- Diameter of zone of inhibition (E. faecalis 945; Quantity n 0.2): r
- Diameter of zone of inhibition (S. aureus 33490; Quantity n [μmol] 0.02): 16 mm
- Diameter of zone of inhibition (S. aureus 33490; Quantity n [μmol] 0.1): 24 mm
- Diameter of zone of inhibition (S. aureus 33490; Quantity n [μmol] 0.2): 26 mm
- Diameter of zone of inhibition (S. aureus 34289; Quantity n [mol] 0.02): r
- Diameter of zone of inhibition (S. aureus 34289; Quantity n [mol] 0.1): r
- Diameter of zone of inhibition (S. aureus 34289; Quantity n [mol] 0.2): r
- Diameter of zone of inhibition (S. aureus 36881; Quantity n 0.02): r
- Diameter of zone of inhibition (S. aureus 36881; Quantity n 0.1): 12 mm
- Diameter of zone of inhibition (S. aureus 36881; Quantity n 0.2): 16 mm
- Diameter of zone of inhibition (S. aureus 39105; Quantity n 0.02): r
- Diameter of zone of inhibition (S. aureus 39105; Quantity n 0.1): 16 mm
- Diameter of zone of inhibition (S. aureus 39105; Quantity n 0.2): 18 mm
- Diameter of zone of inhibition (S. aureus 520; Quantity n [mol] 0.02): r
- Diameter of zone of inhibition (S. aureus 520; Quantity n [mol] 0.1): 8 mm
- Diameter of zone of inhibition (S. aureus 520; Quantity n [mol] 0.2): 12 mm
- Diameter of zone of inhibition (S. aureus 526; Quantity n 0.02): r
- Diameter of zone of inhibition (S. aureus 526; Quantity n 0.1): r
- Diameter of zone of inhibition (S. aureus 526; Quantity n 0.2): r
- Diameter of zone of inhibition ([5]; Quantity n 0.02): r
- Diameter of zone of inhibition ([5]; Quantity n 0.1): 12 mm
- Diameter of zone of inhibition ([5]; Quantity n 0.2): 16 mm
- Diameter of zone of inhibition (S. epidermidis 1068; Quantity n 0.02): 16 mm
- Diameter of zone of inhibition (S. epidermidis 1068; Quantity n 0.1): 22 mm
- Diameter of zone of inhibition (S. epidermidis 1068; Quantity n 0.2): 26 mm
- Diameter of zone of inhibition (S. epidermidis 1071; Quantity n 0.02): 18 mm
- Diameter of zone of inhibition (S. epidermidis 1071; Quantity n 0.1): 26 mm
- Diameter of zone of inhibition (S. epidermidis 1071; Quantity n 0.2): 28 mm
- Diameter of zone of inhibition (S. epidermidis 563; Quantity n 0.02): 20 mm
- Diameter of zone of inhibition (S. epidermidis 563; Quantity n 0.1): 26 mm
- Diameter of zone of inhibition (S. epidermidis 563; Quantity n 0.2): 32 mm
- Diameter of zone of inhibition (S. epidermidis 847; Quantity n [mol] 0.02): 10 mm
- Diameter of zone of inhibition (S. epidermidis 847; Quantity n [mol] 0.1): 20 mm
- Diameter of zone of inhibition (S. epidermidis 847; Quantity n [mol] 0.2): 24 mm
- Diameter of zone of inhibition (S. epidermidis 125; Quantity n 0.02): 22 mm
- Diameter of zone of inhibition (S. epidermidis 125; Quantity n 0.1): 30 mm
- Diameter of zone of inhibition (S. epidermidis 125; Quantity n 0.2): 32 mm

Compound: CCOC(=O)C1=C(NC(C(=O)NC2C(=O)N3C(C(=O)O)=C(Cl)CSC23)c2ccccc2)C(=O)C=CC1=O (stereo not drawn) [1l]
- Diameter of zone of inhibition ([1]; Quantity n 0.019): 30 mm
- Diameter of zone of inhibition ([1]; Quantity n 0.09): 34 mm
- Diameter of zone of inhibition ([1]; Quantity n 0.19): 38 mm
- Diameter of zone of inhibition (B. subtilis AWD 166; Quantity n 0.019): 30 mm
- Diameter of zone of inhibition (B. subtilis AWD 166; Quantity n 0.09): 34 mm
- Diameter of zone of inhibition (B. subtilis AWD 166; Quantity n 0.19): 38 mm
- Diameter of zone of inhibition ([2]; Quantity n 0.019): 18 mm
- Diameter of zone of inhibition ([2]; Quantity n 0.09): 24 mm
- Diameter of zone of inhibition ([2]; Quantity n 0.19): 28 mm
- Diameter of zone of inhibition ([3]; Quantity n 0.019): r
- Diameter of zone of inhibition ([3]; Quantity n 0.09): r
- Diameter of zone of inhibition ([3]; Quantity n 0.19): r
- Diameter of zone of inhibition ([4]; Quantity n 0.019): r
- Diameter of zone of inhibition ([4]; Quantity n 0.09): 10 mm
- Diameter of zone of inhibition ([4]; Quantity n 0.19): 14 mm
- Diameter of zone of inhibition (E. faecalis 945; Quantity n 0.019): r
- Diameter of zone of inhibition (E. faecalis 945; Quantity n 0.09): r
- Diameter of zone of inhibition (E. faecalis 945; Quantity n 0.19): r
- Diameter of zone of inhibition (S. aureus 33490; Quantity n [μmol] 0.019): 14 mm
- Diameter of zone of inhibition (S. aureus 33490; Quantity n [μmol] 0.09): 20 mm
- Diameter of zone of inhibition (S. aureus 33490; Quantity n [μmol] 0.19): 24 mm
- Diameter of zone of inhibition (S. aureus 34289; Quantity n [mol] 0.019): r
- Diameter of zone of inhibition (S. aureus 34289; Quantity n [mol] 0.09): r
- Diameter of zone of inhibition (S. aureus 34289; Quantity n [mol] 0.19): r
- Diameter of zone of inhibition (S. aureus 36881; Quantity n 0.019): r
- Diameter of zone of inhibition (S. aureus 36881; Quantity n 0.09): 8 mm
- Diameter of zone of inhibition (S. aureus 36881; Quantity n 0.19): 18 mm
- Diameter of zone of inhibition (S. aureus 39105; Quantity n 0.019): r
- Diameter of zone of inhibition (S. aureus 39105; Quantity n 0.09): 18 mm
- Diameter of zone of inhibition (S. aureus 39105; Quantity n 0.19): 22 mm
- Diameter of zone of inhibition (S. aureus 520; Quantity n [mol] 0.019): r
- Diameter of zone of inhibition (S. aureus 520; Quantity n [mol] 0.09): r
- Diameter of zone of inhibition (S. aureus 520; Quantity n [mol] 0.19): 10 mm
- Diameter of zone of inhibition (S. aureus 526; Quantity n 0.019): r
- Diameter of zone of inhibition (S. aureus 526; Quantity n 0.09): r
- Diameter of zone of inhibition (S. aureus 526; Quantity n 0.19): r
- Diameter of zone of inhibition ([5]; Quantity n 0.019): r
- Diameter of zone of inhibition ([5]; Quantity n 0.09): 10 mm
- Diameter of zone of inhibition ([5]; Quantity n 0.19): 16 mm
- Diameter of zone of inhibition (S. epidermidis 1068; Quantity n 0.019): 14 mm
- Diameter of zone of inhibition (S. epidermidis 1068; Quantity n 0.09): 20 mm
- Diameter of zone of inhibition (S. epidermidis 1068; Quantity n 0.19): 22 mm
- Diameter of zone of inhibition (S. epidermidis 1071; Quantity n 0.019): 16 mm
- Diameter of zone of inhibition (S. epidermidis 1071; Quantity n 0.09): 24 mm
- Diameter of zone of inhibition (S. epidermidis 1071; Quantity n 0.19): 28 mm
- Diameter of zone of inhibition (S. epidermidis 563; Quantity n 0.019): 16 mm
- Diameter of zone of inhibition (S. epidermidis 563; Quantity n 0.09): 28 mm
- Diameter of zone of inhibition (S. epidermidis 563; Quantity n 0.19): 30 mm
- Diameter of zone of inhibition (S. epidermidis 847; Quantity n [mol] 0.019): r
- Diameter of zone of inhibition (S. epidermidis 847; Quantity n [mol] 0.09): 20 mm
- Diameter of zone of inhibition (S. epidermidis 847; Quantity n [mol] 0.19): 22 mm
- Diameter of zone of inhibition (S. epidermidis 125; Quantity n 0.019): 18 mm
- Diameter of zone of inhibition (S. epidermidis 125; Quantity n 0.09): 26 mm
- Diameter of zone of inhibition (S. epidermidis 125; Quantity n 0.19): 28 mm
